In patent US20100120736A1, “Mineralocorticoid Receptor Antagonists” (N.V. ORGANON, priority 2007, published 2010):

Experiments:
[1] = target: T1, mineralocorticoid receptor (MR) (Rattus norvegicus, UniProt P22199); experiment: In vitro binding to mineralocorticoid receptor (MR), displacement of tritiated aldosterone; conditions: read-out: Mineralocorticoid receptor Antagonist activity IC50
T1 sequence (P22199 1-981): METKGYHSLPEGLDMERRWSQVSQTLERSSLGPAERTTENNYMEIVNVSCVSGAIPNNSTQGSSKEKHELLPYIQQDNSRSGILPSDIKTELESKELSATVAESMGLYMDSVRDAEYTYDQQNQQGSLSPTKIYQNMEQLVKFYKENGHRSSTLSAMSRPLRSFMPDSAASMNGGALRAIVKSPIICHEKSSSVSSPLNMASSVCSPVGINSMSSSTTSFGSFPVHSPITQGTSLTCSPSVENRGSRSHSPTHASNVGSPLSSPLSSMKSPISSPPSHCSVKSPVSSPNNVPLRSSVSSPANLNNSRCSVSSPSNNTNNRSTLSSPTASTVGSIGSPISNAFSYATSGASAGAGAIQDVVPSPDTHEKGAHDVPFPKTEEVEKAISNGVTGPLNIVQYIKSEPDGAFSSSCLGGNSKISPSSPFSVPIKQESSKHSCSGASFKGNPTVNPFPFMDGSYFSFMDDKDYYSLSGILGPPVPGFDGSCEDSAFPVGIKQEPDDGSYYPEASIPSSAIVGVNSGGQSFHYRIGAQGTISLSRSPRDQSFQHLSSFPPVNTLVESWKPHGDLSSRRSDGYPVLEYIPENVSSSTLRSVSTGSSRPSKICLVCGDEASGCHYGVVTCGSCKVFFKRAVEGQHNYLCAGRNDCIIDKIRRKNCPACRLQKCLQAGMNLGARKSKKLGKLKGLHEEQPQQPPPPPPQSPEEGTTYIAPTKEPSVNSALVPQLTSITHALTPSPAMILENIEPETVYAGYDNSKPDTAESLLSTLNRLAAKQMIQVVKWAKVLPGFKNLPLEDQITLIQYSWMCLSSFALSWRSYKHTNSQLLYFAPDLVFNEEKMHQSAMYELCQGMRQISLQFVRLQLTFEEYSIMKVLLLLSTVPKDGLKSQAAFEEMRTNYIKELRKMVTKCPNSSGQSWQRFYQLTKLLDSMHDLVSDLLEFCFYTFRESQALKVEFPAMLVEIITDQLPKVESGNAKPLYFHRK
From the text: In vitro binding to the mineralocorticoid receptor (MR) was essentially carried out as reported in the literature (C. E. Gomez-Sanchez and E. P. Gomez-Sanchez, Endocrinology 113 (1983) 1004-1009, Z. S. Krozowski and J. W. Funder, Proc. Natl. Acad. Sci. USA 80 (1983) 6056-; J. H. M. H. Reul and E. R. de Kloet, Endocrinology 117 (1985) 2505-2511; K. E. Sheppard and J. W. Funder, J. Steroid Biochem. 28 (1987) 737-742).
Male Wistar rats Were adrenalectomised and perfused with cold saline after 3 days of survival. Kidneys and hippocampi, respectively, were rapidly dissected and homogenized. A cylosolic fraction was prepared by centrifugation.
Unlabeled RU 28362 (10 nM), a specific GR binder, was added for saturating glucocorticoid receptors. Compounds to be tested, dissolved in DMF and diluted with water to obtain the required concentration, were added in an increasing concentration range (1.0-1000 nM) and allowed to incubate for 3 h. Incubations were terminated by adding dextran-coated charcoal suspension, followed by centrifugation. The supernatant was assayed with a scintillation counter for unbound labelled ligand.

SMILES | IC50 [1] [nM] | melting point [°C]
CC(=O)S[C@@H]1CC2=CC(=O)CC[C@]2(C)[C@H]2CC[C@@]3(C)[C@@H](CC[C@@]34CCC(=O)O4)[C@H]12 [Spironolactone, reference compound] | 6 | 
C=C(C)[C@H]1CC[C@H]2[C@@H]3CCC4=CC(=O)CC[C@]4(C)[C@H]3[C@@H](O)C[C@]12C [synthetic example 1, (11β)-11-hydroxy-20-methylpregna-4,20-dien-3-one] | 0.44 | 
CC[C@H]1CC[C@H]2[C@@H]3CCC4=CC(=O)C=C[C@]4(C)[C@H]3[C@@H](O)C[C@]12C [synthetic example 14, (11β)-11-hydroxypregna-1,4-dien-3-one] | 0.12 | 
C[C@]12C[C@H](O)[C@H]3[C@@H](CCC4=CC(=O)CC[C@@]43C)[C@@H]1CC[C@@H]2C(=O)CO [Corticosterone, reference compound] | 5 | 
C=C(C)[C@H]1CC[C@H]2[C@@H]3C=CC4=CC(=O)CC[C@]4(C)[C@H]3[C@@H](O)C[C@]12C |  | 153 to 155
